Where two headings read alike, the source gives them in different places.
Tests used:
[1] = molecular target: T1, human orexin-2 receptor (Homo sapiens (Human), UniProt O43614); assay: radioligand binding assay, orexin-2 receptor; conditions: read-out: hOX2R BIND hKi
[2] = molecular target: rat orexin-1 receptor (Rattus norvegicus (Rat), UniProt P56718); assay: FLIPR Ca2+ Flux Assay, orexin-1 receptor; assay type: cell-based; conditions: read-out: hOX1R FLIPR IC50
How it was run: (§1)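 CHO cells stably expressing rat OX1R or human OX2R were loaded with 1 μM Fluo-4AM for 60 min at 37 °C, then preincubated with compound for 5 min before challenge with 70 pM Ala-6,12 human orexin-A. FLIPR peak fluorescence was compared with agonist-only wells.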

[3] = molecular target: T1, human orexin-2 receptor; assay: FLIPR Ca2+ Flux Assay, orexin-2 receptor; assay type: cell-based; conditions: read-out: hOX2R FLIPR IC50
How it was run: as §1

[4] = molecular target: orexin-1 receptor (hOX1R) (Rattus norvegicus, UniProt P56718); assay: radioligand binding assay, orexin-1 receptor; conditions: membranes prepared from CHO cells expressing the OX1 receptor; read-out: hOX1R BIND hKi
Sequence of orexin-1 receptor (hOX1R) (P56718 whole entry, looked up): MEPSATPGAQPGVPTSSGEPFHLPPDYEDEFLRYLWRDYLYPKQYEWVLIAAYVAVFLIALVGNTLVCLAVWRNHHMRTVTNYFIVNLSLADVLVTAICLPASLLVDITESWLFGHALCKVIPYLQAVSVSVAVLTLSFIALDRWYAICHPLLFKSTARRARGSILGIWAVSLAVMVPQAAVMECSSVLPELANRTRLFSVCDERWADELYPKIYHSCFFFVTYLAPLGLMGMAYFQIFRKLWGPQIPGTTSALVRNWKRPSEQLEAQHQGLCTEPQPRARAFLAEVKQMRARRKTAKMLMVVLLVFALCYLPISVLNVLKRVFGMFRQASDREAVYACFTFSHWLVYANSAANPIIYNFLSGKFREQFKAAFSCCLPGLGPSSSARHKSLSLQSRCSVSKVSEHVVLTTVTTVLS
Method: In a typical experiment the OX1 and OX2 receptor antagonistic activity of the compounds of the present invention was determined in accordance with the following experimental method. For intracellular calcium measurements, Chinese hamster ovary (CHO) cells expressing the rat orexin-1 receptor or the human orexin-2 receptor, are grown in Iscove's modified DMEM containing 2 mM L-glutamine, […], 1% hypoxanthine-thymidine supplement, 100 U/ml penicillin, 100 μg/ml streptomycin and 10% heat-inactivated fetal calf serum (FCS). The cells are seeded at 20,000 cells/well into Becton-Dickinson black 384-well clear bottom sterile plates coated with poly-D-lysine. […] Within the Fluorescent Imaging Plate Reader (FLIPR, Molecular Devices), test compounds are added to the plate in a volume of 25 μl, incubated for 5 min and finally 25 μl of agonist is added. Fluorescence is measured for each well at 1 second intervals for 5 minutes and the height of each fluorescence peak is compared to the height of the fluorescence peak induced by 70 pM Ala-6,12 orexin-A with buffer in place of antagonist. […] Alternatively, compound potency can be assessed by a radioligand binding assay (described in Bergman et. al. Bioorg. Med. Chem. Lett. 2008, 18, 1425-1430) in which the inhibition constant (Ki) is determined in membranes prepared from CHO cells expressing either the OX1 or OX2 receptor. […]

[5] = membranes prepared from CHO cells expressing the OX2 receptor
[6] = CHO cells expressing the rat orexin-1 receptor, agonist 70 pM Ala-6,12 human orexin-A
[7] = CHO cells expressing the human orexin-2 receptor, agonist 70 pM Ala-6,12 human orexin-A

Sequence of rat orexin-1 receptor (P56718 whole entry): as the sequence (P56718 whole entry, looked up) above
T1 sequence (O43614 whole entry): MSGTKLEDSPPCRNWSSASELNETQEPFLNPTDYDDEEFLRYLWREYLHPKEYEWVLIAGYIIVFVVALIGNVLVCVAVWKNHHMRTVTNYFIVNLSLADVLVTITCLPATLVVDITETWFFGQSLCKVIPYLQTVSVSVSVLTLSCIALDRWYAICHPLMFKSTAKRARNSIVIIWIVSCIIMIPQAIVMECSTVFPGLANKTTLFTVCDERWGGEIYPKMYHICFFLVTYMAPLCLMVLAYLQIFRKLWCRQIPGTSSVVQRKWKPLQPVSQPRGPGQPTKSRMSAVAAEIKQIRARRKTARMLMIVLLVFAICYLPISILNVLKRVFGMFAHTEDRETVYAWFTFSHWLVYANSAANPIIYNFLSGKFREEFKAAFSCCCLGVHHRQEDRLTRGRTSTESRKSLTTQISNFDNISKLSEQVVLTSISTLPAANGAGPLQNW

| SMILES | Ki [1, 5] [µM] | IC50 [2, 6] [µM] | IC50 [3, 7] [µM] | Ki [1] [µM] | Ki [4] [µM] | IC50 [2] [µM] | IC50 [3] [µM] |
| --- | --- | --- | --- | --- | --- | --- | --- |
| COc1c(C#N)ccnc1O[C@@H]1CC[C@@H](C)N(C(=O)c2cccc(F)c2-n2nccn2)C1 [Example 97, 2-{[(3R,6R)-1-{[3-fluoro-2-(2H-1,2,3-triazol-2-yl)phenyl]carbonyl}-6-methylpiperidin-3-yl]oxy}-3-methoxypyridine-4-carbonitrile] | 0.0003 | 1.1 | 0.019 |  |  |  |  |
| COc1c(C#N)ccnc1O[C@@H]1CC[C@@H](C)N(C(=O)c2cc(F)ccc2-n2nccn2)C1 [Example 99, 2-{[(3R,6R)-1-{[5-fluoro-2-(2H-1,2,3-triazol-2-yl)phenyl]carbonyl}-6-methylpiperidin-3-yl]oxy}-3-methoxypyridine-4-carbonitrile] | 0.0004 | 2.43 | 0.015 |  |  |  |  |
| COc1c(C#N)ccnc1O[C@@H]1CC[C@@H](C)N(C(=O)c2c(F)cccc2-n2nccn2)C1 [Example 100, 2-{[(3R,6R)-1-{[2-fluoro-6-(2H-1,2,3-triazol-2-yl)phenyl]carbonyl}-6-methylpiperidin-3-yl]oxy}-3-methoxypyridine-4-carbonitrile] | 0.0003 | 1.44 | 0.025 |  |  |  |  |
| COc1c(C#N)ccnc1O[C@@H]1CC[C@@H](C)N(C(=O)c2cccc(C)c2-n2nccn2)C1 [Example 101, 3-methoxy-2-{[(3R,6R)-6-methyl-1-{[3-methyl-2-(2H-1,2,3-triazol-2-yl)phenyl]carbonyl}piperidin-3-yl]oxy}pyridine-4-carbonitrile] | 0.0003 | 0.957 | 0.021 |  |  |  |  |
| COc1c(C#N)ccnc1O[C@@H]1CC[C@@H](C)N(C(=O)c2ccc(C)cc2-n2nccn2)C1 [Example 102, 3-methoxy-2-{[(3R,6R)-6-methyl-1-{[4-methyl-2-(2H-1,2,3-triazol-2-yl)phenyl]carbonyl}piperidin-3-yl]oxy}pyridine-4-carbonitrile] | 0.0004 | 3.55 | 0.021 |  |  |  |  |
| COc1c(C#N)ccnc1O[C@@H]1CC[C@@H](C)N(C(=O)c2cc(C)ccc2-n2nccn2)C1 [Example 103, 3-methoxy-2-{[(3R,6R)-6-methyl-1-{[5-methyl-2-(2H-1,2,3-triazol-2-yl)phenyl]carbonyl}piperidin-3-yl]oxy}pyridine-4-carbonitrile] | 0.0004 | 1.01 | 0.024 |  |  |  |  |
| COc1ccc(C(=O)N2C[C@H](Oc3nccc(C#N)c3OC)CC[C@H]2C)c(-n2nccn2)n1 [Example 104, 3-methoxy-2-{[(3R,6R)-1-{[6-methoxy-2-(2H-1,2,3-triazol-2-yl)pyridin-3-yl]carbonyl}-6-methylpiperidin-3-yl]oxy}pyridine-4-carbonitrile] | 0.002 | > 10 | 0.029 |  |  |  |  |
| COc1c(C#N)ccnc1O[C@@H]1CC[C@@H](C)N(C(=O)c2ccccc2C2CCC2)C1 [Example 105, 2-({(3R,6R)-1-[(2-cyclobutylphenyl)carbonyl]-6-methylpiperidin-3-yl}oxy)-3-methoxypyridine-4-carbonitrile] | 0.0002 | 3.5 | 0.036 |  |  |  |  |
| COc1c(C#N)ccnc1O[C@@H]1CC[C@@H](C)N(C(=O)c2ccccc2-c2ncccn2)C1 [Example 107, 3-methoxy-2-({(3R,6R)-6-methyl-1-[(2-pyrimidin-2-ylphenyl)carbonyl]piperidin-3-yl}oxy)pyridine-4-carbonitrile] | 0.0004 | 2.75 | 0.033 |  |  |  |  |
| COc1c(C#N)ccnc1O[C@@H]1CC[C@@H](C)N(C(=O)c2cccc(F)c2-c2ncccn2)C1 [Example 109] |  |  |  | 0.0011 | 0.482 | 2.85 | 0.026 |
| COc1c(C#N)ccnc1O[C@@H]1CC[C@@H](C)N(C(=O)c2ccc(F)cc2-c2ncccn2)C1 [Example 110, 2-({(3R,6R)-1-[(4-fluoro-2-pyrimidin-2-ylphenyl)carbonyl]-6-methylpiperidin-3-yl}oxy)-3-methoxypyridine-4-carbonitrile] | 0.0006 | 1.24 | 0.039 |  |  |  |  |
| COc1c(C#N)ccnc1O[C@@H]1CC[C@@H](C)N(C(=O)c2cc(F)ccc2-c2ncccn2)C1 [Example 111, 2-({(3R,6R)-1-[(5-fluoro-2-pyrimidin-2-ylphenyl)carbonyl]-6-methylpiperidin-3-yl}oxy)-3-methoxypyridine-4-carbonitrile] | 0.0003 | 0.945 | 0.018 |  |  |  |  |
| COc1c(C#N)ccnc1O[C@@H]1CC[C@@H](C)N(C(=O)c2ccccc2-n2ncnn2)C1 [Example 115, 3-Methoxy-2-{[(3R,6R)-6-methyl-1-{[2-(2H-tetrazol-2-yl)phenyl]carbonyl}piperidin-3-yl]oxy}pyridine-4-carbonitrile] | 0.0014 | 1.65 | 0.006 |  |  |  |  |
